Data on eight compounds can be found in patent US20230114107A1, “COMBINATION ANTI-CANCER THERAPIES WITH INDUCERS OF IRON-DEPENDENT CELLULAR DISASSEMBLY” (Flagship Pioneering Innovations V, Inc., priority 2019, published 2023).

Experiment [1] deals with Caki-1 renal cell carcinoma cells. The experiment can be described thus: Viability of Caki-1 renal cell carcinoma cells after treatment. Type of experiment: cell-based.
Experiment [2] deals with NFKB reporter in THP1-Dual cells. Nature of the experiment: NFKB reporter activity in THP1-Dual monocytes co-cultured with treated Caki-1 cells. Type of experiment: cell-based, human. The method, then: Caki-1 renal cell carcinoma cells were treated with either control (DMSO) or various doses of Erastin, for 24 hours prior to co-culture with THP1-Dual cells for an additional 24 hours. Erastin was purchased from Selleckchem (Houston, Tex.) and dissolved in DMSO. Subsequently, the THP1 supernatants were assessed for NFKB or IRF reporter activity. Caki-1 cells were acquired from ATCC and THP1-Dual cells acquired from InvivoGen (San Diego, Calif.). Both cell types were cultured in 96-well plates for the duration of the assay. 7,500 Caki-1 cells were plated 24 hours prior to dosing with Erastin, with a final DMSO concentration of 0.5%. 24 hours post-treatment, THP1-Dual cells (25,000 cells/well) were added to the Caki-1 cells. 24 hours later, 30 μl of supernatant was mixed with either 200 μl QuantiBlue (InvivoGen) or 50 μl QuantiLuc and absorbance or luminescence was recorded on a Molecular Devices plate reader. Caki-1 renal cell carcinoma cells were treated with either control (DMSO) or various doses of RSL3, for 24 hours prior to co-culture with THP1-Dual cells for an additional 24 hours. RSL3 was purchased from Selleckchem and dissolved in DMSO. Subsequently, the THP1 supernatants were assessed for NFKB or IRF reporter activity. Caki-1 cells were acquired from ATCC and THP1-Dual cells acquired from InvivoGen (San Diego, Calif.). Both cell types were cultured in 96-well plates for the duration of the assay. 7,500 Caki-1 cells were plated 24 hours prior to dosing with RSL3, with a final DMSO concentration of 0.5%. 24 hours post-treatment, THP1-Dual cells (25,000 cells/well) were added to the Caki-1 cells. 24 hours later, 30 μl of supernatant was mixed with either 200 μl QuantiBlue (InvivoGen, San Diego, Calif.) or 50 μl QuantiLuc and absorbance or luminescence was recorded on a Molecular Devices plate reader. […] Subsequently, the THP1 supernatant was assessed for NFKB reporter activity. Caki-1 cells were acquired from ATCC and THP1-Dual cells acquired from InvivoGen (San Diego, Calif.). Both cell types were cultured in 96-well plates for the duration of the assay.

Experiment [3] concerns A20 B-cell leukemia cells. Nature of the experiment: Viability of A20 B-cell leukemia / lymphoma cells after treatment. The note with it: for viability of A20 lymphoma cells, dose dependence: GPX4 inhibitor 0.002-10 μM, 24 hours, FIG. 10A, 11A, 12A. In kind it is cell-based.
Experiment [4] concerns NFKB reporter in THP1-Dual cells. Nature of the experiment: NFKB reporter activity in THP1-Dual monocytes co-cultured with treated A20 cells. Type of experiment: cell-based, human. As to conditions: for NFKB activity in THP1 cells, dose dependence: A20 lymphoma cells treated with GPX4 inhibitor, FIG. 10B, 11B, 12B. The method, then: A20 B-cell leukemia cells were treated with either control (DMSO) or various doses of RSL3, for 24 hours prior to co-culture with THP1-Dual cells for an additional 24 hours. RSL3 was purchased from Selleckchem (Houston, Tex.) and dissolved in DMSO. Subsequently, the THP1 supernatants were assessed for NFKB or IRF reporter activity.
A20 cells were acquired from ATCC and THP1-Dual cells acquired from InvivoGen (San Diego, Calif.). Both cell types were cultured in 96-well plates for the duration of the assay. 50,000 A20 cells were plated 24 hours prior to dosing with RSL3, with a final DMSO concentration of 0.5%. 24 hours post-treatment, THP1-Dual cells (25,000 cells/well) were added to the A20 cells. 24 hours later, 30 μl of supernatant was mixed with either 200 μl QuantiBlue (InvivoGen, San Diego, Calif.) or 50 μl QuantiLuc and absorbance or luminescence was recorded on a Molecular Devices plate reader.
A20 lymphoma cells were treated with various doses (e.g. 0.002, 0.005, 0.014, 0.041, 0.123, 0.370, 1.111, 3.333 and 10 μM) of a GPX4 inhibitor (RSL3, ML162 or ML210) in the presence or absence of 1 μM Ferrostatin-1 for 24 hours. ML162 was purchased from Cayman Chemical Company Inc and resuspended in DMSO. ML210 was purchased from Sigma-Aldrich and resuspended in DMSO. A20 lymphoma cells were also treated with DMSO as a negative control. After treatment with DMSO or a GPX4 inhibitor for 24 hours, the A20 lymphoma cells were co-cultured with THP1-Dual cells for an additional 24 hours. Subsequently, the THP1 supernatant was assessed for NFKB reporter activity. A20 cells were acquired from ATCC and THP1-Dual cells were acquired from InvivoGen (San Diego, Calif.). Both cell types were cultured in 96-well plates for the duration of the assay.

The subject of experiment [5] is HT1080 fibrosarcoma cells. Nature of the experiment: Viability of HT1080 fibrosarcoma cells after 24 h treatment. In kind it is cell-based. The note with it: various doses.
Experiment [6] concerns NFKB reporter in THP1-Dual cells. Nature of the experiment: NFKB reporter activity in THP1-Dual monocytes co-cultured with treated HT1080 cells. In kind it is cell-based, human. The method, then: HT1080 fibrosarcoma cells were treated with either control (DMSO) or various doses of Erastin, piperazine erastin (PE), or imidazole ketoerastin (IKE) for 24 hours prior to co-culture with THP1-Dual cells for an additional 24 hours. Erastin was purchased from Selleckchem (Houston, Tex.) and dissolved in DMSO. Subsequently, the THP1 supernatants were assessed for nuclear factor kappa-light-chain-enhancer of activated B cells (NFKB) or interferon regulatory factor (IRF) reporter activity.
HT1080 cells were acquired from ATCC and THP1-Dual cells were acquired from InvivoGen (San Diego, Calif.). THP1-Dual cells are human monocyte cells that induce reporter proteins upon activation of either NFKB or IRF pathways. Both cell types were cultured in 96-well plates for the duration of the assay. HT1080 cells were cultured in DMEM with 10% FBS, and THP1-Dual cells were cultured in RPMI with 10% FBS. 7,500 HT1080 cells were plated 24 hours prior to dosing with Erastin, PE, or IKE, with a final DMSO concentration of 0.5%. 24 hours post-treatment, THP1-Dual cells (25,000 cells/well) were added to the HT1080 cells. 24 hours later, 30 μl of supernatant was mixed with either 200 μl QuantiBlue (InvivoGen, San Diego, Calif.) (for NFKB reporter activity) or 50 μl QuantiLuc (for IRF reporter activity) and absorbance or luminescence was recorded on a Molecular Devices plate reader.
HT1080 fibrosarcoma cells were treated with various doses of Erastin (e.g. […], 0.16, 0.31, 0.63, 1.25, 2.5, 5, 10 or 20 μM) alone or in combination with a ferroptosis inhibitor (1 μM Ferrostatin-1, 1 μM Liproxstatin-1, 100 μM Trolox, 25 μM β-Mercaptoethanol or 100 μM Deferoxamine) for 24 hours prior to co-culture with THP1-Dual cells for an additional 24 hours. Ferrostatin-1 and Liproxstatin-1 were purchased from Selleckchem (Houston, Tex.) and dissolved in DMSO. Trolox was purchased from Cayman Chemical Company Inc and resuspended in DMSO. […] Subsequently, the THP1 supernatant was assessed for NFKB activity. […]
HT1080 fibrosarcoma cells were treated with various doses of Erastin (ferroptosis inducer), docetaxel (apoptosis inducer) or H2O2 (necrosis inducer) for 24 hours prior to co-culture with THP1-Dual cells for an additional 24 hours. […] Subsequently, the THP1 supernatants were assessed for nuclear factor kappa-light-chain-enhancer of activated B cells (NFKB).
HT1080 cells were acquired from ATCC and THP1-Dual cells were acquired from InvivoGen (San Diego, Calif.). […] 24 hours later, 30 μl of supernatant was mixed with either 200 μl QuantiBlue (InvivoGen, San Diego, Calif.) (for NFKB reporter activity) or 50 μl QuantiLuc (for IRF reporter activity) and absorbance or luminescence was recorded on a Molecular Devices plate reader.

In experiment [7] the test system is NFkB reporter in THP1 monocytes. Nature of the experiment: Screen for innate immune activation: NFkB reporter in THP1 monocytes added to drug-treated HT-1080 cells. The note with it: final compound concentration of 10 PM; reporter read 48h after THP-1 addition; FIG. 17. Type of experiment: cell-based, human. The method, then:
Over 100 FDA-approved anticancer drugs and 6 inducers of ferroptosis were evaluated for their ability to induce innate immune activation, as measured by induction of an NFkB reporter in THP1 monocytes in vitro. The source of the approved anticancer drug compounds was plate Approved Oncology Drug (AOD) IX, available from the National Cancer Institute, Division of Cancer Treatment and Diagnosis (dtp.cancer.gov/organization/dscb/obtaining/available_plates.htm). Briefly, 20,000-30,000 HT-1080 cells were plated per well in 96 well plates, and 10 μl each of compounds from the AOD IX plates were added to each well, for a final compound concentration of 10 PM. The six inducers of ferroptosis listed above were also included in the experiment, as a comparison. After addition of the drug, cells were incubated overnight, and 50,000 THP-1 reporter cells were added to each well on the following day. Reporter induction was measured by colorimetry 48h after reporter cell addition.

Where [8] appears, read: ferroptosis, apoptosis, necrosis inducers compared, FIG. 15A.
[9] abbreviates: HT1080 cells treated with ferroptosis, apoptosis or necrosis inducer, FIG. 15B.
Where [10] appears, read: HT1080 cells treated 24 hours, co-culture 24 hours, vs DMSO, FIG. 1B, 1D.

Turning to `CCOC(=O)c1ccc(NC2CCCCC2)c(N)c1` [Ferrostatin-1], the “effect on GPX4 inhibitor-decreased viability of Caki-1 renal carcinoma cells” value in experiment [1] (1 μM Ferrostatin with RSL3 or ML162, 24 hours) is on record as “attenuated”. For the same compound, the “effect on GPX4 inhibitor-increased NFKB activity in THP1 cells” value in experiment [2] (Caki-1 cells, 1 μM Ferrostatin with RSL3 or ML162) is “attenuated”; in experiment [4] (A20 cells, 1 μM Ferrostatin-1 with RSL3, ML162 or ML210) it was “attenuated”. Besides, the “effect on GPX4 inhibitor-decreased viability of A20 lymphoma cells” value in experiment [3] (1 μM Ferrostatin-1 with RSL3, ML162 or ML210, 24 hours) is “attenuated”.

As to `CC(=O)O[C@@]12CO[C@@H]1C[C@H](O)[C@@]1(C)C(=O)[C@H](O)C3=C(C)[C@@H](OC(=O)[C@H](O)[C@@H](NC(=O)OC(C)(C)C)c4ccccc4)C[C@@](O)([C@@H](OC(=O)c4ccccc4)[C@H]21)C3(C)C` [docetaxel, Docetaxel], in experiment [5] (setting [8]), the “viability of HT1080 cells” value is “negatively affected the viability”. Moreover, in experiment [6] (setting [9]), the “NFKB signaling in THP1 monocytes” value is “did not have this same effect”.

Turning to `CC(C)Oc1ccc(CN2CCNCC2)cc1-n1c(CN2CCN(C(=O)COc3ccc(Cl)cc3)CC2)nc2ccccc2c1=O` [PE, piperazine erastin], the “viability of HT1080 cells” value in experiment [5] (FIG. 1A, 1C) is reported as “negatively affected the viability”. The “NFKB signaling in THP1 monocytes” value in experiment [6] (setting [10]) was “elicited NFKB signaling in THP1 monocytes”.

As for `OO` [Example H2O2, H2O2], the “viability of HT1080 cells” value in experiment [5] (setting [8]) is reported as “negatively affected the viability”. Further, the “NFKB signaling in THP1 monocytes” value in experiment [6] (setting [9]) is recorded as “did not have this same effect”.

With `COc1ccc(N(C(=O)CCl)C(C(=O)NCCc2ccccc2)c2cccs2)cc1Cl` (centres unmarked) [ML162], the “viability of Caki-1 renal carcinoma cells, dose dependence” value in experiment [1] (GPX4 inhibitor various doses, 24 hours, FIG. 13A, 14A) was “decreased viability of the cells in a dose dependent manner”. Also, the “NFKB activity in THP1 cells, dose dependence” value in experiment [2] (Caki-1 cells treated with RSL3 or ML162, FIG. 13B, 14B) is listed as “increased NFKB activity in THP1 cells in a dose dependent manner”; in experiment [4], “increased NFKB activity in THP1 cells in a dose dependent manner”. Besides, the “viability of A20 lymphoma cells, dose dependence” value in experiment [3] was “decreased viability of the cells in a dose dependent manner”.

`CC(C)Oc1ccc(C(=O)Cn2ccnc2)cc1-n1c(CN2CCN(C(=O)COc3ccc(Cl)cc3)CC2)nc2ccccc2c1=O` [IKE, imidazole ketoerastin]: the “viability of HT1080 cells” value in experiment [5] (FIG. 1A, 1C) was “negatively affected the viability”. The “NFKB signaling in THP1 monocytes” value in experiment [6] (setting [10]) was “elicited NFKB signaling in THP1 monocytes”. The “increase in NFkB activity relative to the baseline” value in experiment [7] turned out to be 2.4 fold.

As for `Cc1onc(C(=O)N2CCN(C(c3ccc(Cl)cc3)c3ccc(Cl)cc3)CC2)c1[N+](=O)[O-]` [ML210], the “viability of A20 lymphoma cells, dose dependence” value in experiment [3] is “decreased viability of the cells in a dose dependent manner”. In addition, in experiment [4], the “NFKB activity in THP1 cells, dose dependence” value was “increased NFKB activity in THP1 cells in a dose dependent manner”.

For `CCOc1ccccc1-n1c(C(C)N2CCN(C(=O)COc3ccc(Cl)cc3)CC2)nc2ccccc2c1=O` (centres unmarked) [Erastin], the “increase in NFkB activity relative to the baseline” value in experiment [7] came out at 3.2 fold.
